In patent US20090143469A1, “SALTS OF NATEGLINIDE” (priority 2002, published 2009):
Read-outs that look alike come from different tables or passages of the source.

Key:
Type in all cases: physicochemical
[1] = Gain in weight at 84% RH (hygroscopicity) of nateglinide salts; conditions: for Gain % (gain in weight at 84% RH): 84% RH (relative humidity), * = XRPD changed, confirmed by Thermalgravimetry; for hygroscopicity (in words): different relative humidities
[2] = Solubility in water of nateglinide salts
[3] = Bulk density of nateglinide salts

Compound	Gain % (gain in weight at 84% RH) [1]	Solubility Water [2] [µg/mL]	Bulk Density [3] [g/mL]	further results
CC(C)[C@H]1CC[C@H](C(=O)N[C@H](Cc2ccccc2)C(=O)O)CC1 [Form H of nateglinide, N-(trans-4-isopropylcyclohexylcarbonyl)-D-phenylalanine, reference compound]	<0.1%	90	0.28	
CC(C)[C@H]1CC[C@H](C(=O)N[C@H](Cc2ccccc2)C(=O)O)CC1 [Form B of nateglinide, N-(trans-4-isopropylcyclohexylcarbonyl)-D-phenylalanine, reference compound]			0.18	solubility [2]: 90 µg/mL
CC(C)C1CCC(C(=O)NC(Cc2ccccc2)C(=O)[O-])CC1.[K+] (stereo not drawn) [Compound No. 5]	8.2* %			
CC(C)[C@H]1CC[C@H](C(=O)N[C@H](Cc2ccccc2)C(=O)[O-])CC1.[Na+] [Compound No. 1]	1.19%			
CC(C)[C@H]1CC[C@H](C(=O)N[C@H](Cc2ccccc2)C(=O)[O-])CC1.CC(C)[C@H]1CC[C@H](C(=O)N[C@H](Cc2ccccc2)C(=O)[O-])CC1.[Mg+2] [Comp. No. 11]	<0.1%	450	0.21	hygroscopicity (in words) [1]: non-hygroscopic; water solubility compared with other forms (in words) [2]: comparable to that of the calcium analogue
[Ca] [Calcium]		540	0.24	
[K+] [Potassium]		>40000	0.17	
Ammonium		<200	0.20	
CC(C)C1CCC(C(=O)NC(Cc2ccccc2)C(=O)O)CC1.N (stereo not drawn) [Comp. No. 17]	<0.1%			
CC(C)[C@H]1CC[C@H](C(=O)N[C@H](Cc2ccccc2)C(=O)O)CC1.NCCCCC(N)C(=O)O [Comp. No. 14]	1.3%			
CC(C)C1CCC(C(=O)NC(Cc2ccccc2)C(=O)[O-])CC1.CC(C)C1CCC(C(=O)NC(Cc2ccccc2)C(=O)[O-])CC1.[Ca+2] (stereo not drawn) [Compound No. 9]	0.4%			
Lysine			0.50	
CC(C)[C@H]1CC[C@H](C(=O)N[C@H](Cc2ccccc2)C(=O)O)CC1.CNC[C@H](O)[C@@H](O)[C@H](O)[C@H](O)CO [Comp. No. 12]	<0.1%	7300	0.16	hygroscopicity (in words) [1]: non-hygroscopic; water solubility compared with other forms (in words) [2]: lower than that of the alkaline metal salts of nateglinide
CC(C)[C@H]1CC[C@H](C(=O)N[C@H](Cc2ccccc2)C(=O)O)CC1.NC(CO)(CO)CO [Comp. No. 13]	<0.1%		0.51	Solubility Water ([2]; listed as TRIS): >40000 µg/mL; Solubility Water ([2]; listed as tris(hydroxymethyl)-aminomethane salt of nateglinide): more than 40 mg/ml
CC(C)[C@H]1CC[C@H](C(=O)N[C@H](Cc2ccccc2)C(=O)[O-])CC1.[Na+] [Sodium]		>40000	0.14	
